Reference: ChEMBL document CHEMBL4732087, “Structure-activity relationship (SAR) studies of N-(3-methylpyridin-2-yl)-4-(pyridin-2-yl)thiazol-2-amine (SRI-22819) as NF-ҡB activators for the treatment of ALS” (Eur J Med Chem, 2021)
In brackets after ≈: the same amount, converted by molar mass. Values belong to the compound of their own block, whether it stands above or below them.

Key:
[1] = Kinetic solubility of compound at pH 7.4 by shake flask method; type: physicochemical; details: buffer, read-out: Kinetic_solubility
[2] = Cmax in CD1 mouse at 5 mg/kg, po by LC-MS/MS analysis; type: ADME, organism-based; parameters: route oral, dose 5 mg/kg; details: in vivo
[3] = Oral bioavailability in CD1 mouse at 5 mg/kg by LC-MS/MS analysis; type: ADME, organism-based; details: in vivo
[4] = Drug concentration in CD1 mouse plasma at 1 mg/kg, iv measured at […] by LC-MS/MS analysis; type: ADME, organism-based; details: time 0.25 hrs
[5] = Ratio of drug concentration in brain to plasma in CD1 mouse at 1 mg/kg, iv measured at 0.5 hrs by LC-MS/MS analysis; type: ADME, organism-based
[6] = Drug concentration in CD1 mouse brain at 1 mg/kg, iv measured at […] by LC-MS/MS analysis; type: ADME, organism-based; details: time 0.25 hrs, read-out: Ct
[7] = Drug concentration in CD1 mouse plasma at 1 mg/kg, iv measured at 0.5 hrs by LC-MS/MS analysis; type: ADME, organism-based
[8] = Drug concentration in CD1 mouse brain at 1 mg/kg, iv measured at 0.5 hrs by LC-MS/MS analysis; type: ADME, organism-based; details: read-out: Ct
[9] = Ratio of drug concentration in brain to plasma in CD1 mouse at 1 mg/kg, iv measured at […] by LC-MS/MS analysis; type: ADME, organism-based; details: time 0.25 hrs

solubility kinetic [1]: 3.1 µM (≈ 0.965 µg/mL)
SMILES: CNC(=O)c1cccc(-c2cnc(Nc3ccc(F)cc3)o2)c1

Cmax [2]: 92 ng/mL
bioavailability [3]: 15.6%
SMILES: O=C(O)c1cccc(-c2cnc(Nc3ccccc3F)o2)c1

Cmax [2]: 101 ng/mL
solubility kinetic [1]: 80.9 µM (≈ 25.4 µg/mL)
bioavailability [3]: 26.6%
SMILES: O=C(O)c1cccc(-c2csc(Nc3ccccc3F)n2)c1

concentration at […] [4]: 119 ng/mL
Kp at 0.5 h [5]: 4.81
concentration at […] [6]: 821 ng/g
concentration at 0.5 h [7]: 74.4 ng/mL
concentration at 0.5 h [8]: 357 ng/g
Kp at […] [9]: 6.93
SMILES: Cc1noc(-c2cccc(-c3cnc(Nc4ccc(F)cc4)o3)c2)n1

solubility kinetic [1]: < 1 µM
SMILES: COC(=O)c1cccc(-c2cnc(Nc3cccc(F)c3)o2)c1

solubility kinetic [1]: 45.4 µM (≈ 12.4 µg/mL)
SMILES: Fc1cccnc1Nc1nc(-c2ccccn2)cs1

solubility kinetic [1]: 15.2 µM (≈ 4.09 µg/mL)
SMILES: Nc1cccc(-c2cnc(Nc3ccc(F)cc3)o2)c1

solubility kinetic [1]: 70.5 µM (≈ 20 µg/mL)
SMILES: O=C(O)c1cccc(-c2noc(-c3ccccc3F)n2)c1

solubility kinetic [1]: 77.7 µM (≈ 24.4 µg/mL)
SMILES: O=C(O)c1cccc(-c2csc(Nc3ccc(F)cc3)n2)c1

solubility kinetic [1]: < 1 µM
SMILES: COC(=O)c1cccc(-c2cnc(Nc3ccc(F)cc3)o2)c1

solubility kinetic [1]: < 1 µM
SMILES: COC(=O)c1ccc(-c2cnc(Nc3ccccc3F)o2)cc1

solubility kinetic [1]: < 1 µM
SMILES: Fc1cccc(-c2csc(Nc3ccccc3F)n2)c1

solubility kinetic [1]: 30.9 µM (≈ 9.28 µg/mL)
SMILES: OCc1cccc(-c2csc(Nc3ccccc3F)n2)c1

solubility kinetic [1]: < 1 µM
SMILES: Fc1ccccc1Nc1nc(-c2ccccc2)cs1

solubility kinetic [1]: 69 µM (≈ 21.8 µg/mL)
SMILES: O=C(O)c1cccc(-c2cnc(Nc3ccc(F)cc3F)o2)c1

The remaining lines, values behind:

SMILES: Cc1cccnc1Nc1ncc(-c2ccccn2)o1
solubility kinetic [1]: 72.5 µM (≈ 18.3 µg/mL)

SMILES: O=C(O)c1cccc(-c2csc(-c3ccccc3F)n2)c1
solubility kinetic [1]: 55.2 µM (≈ 16.5 µg/mL)

SMILES: O=C(O)c1cccc(-c2cnc(-c3ccccc3F)o2)c1
solubility kinetic [1]: 69.5 µM (≈ 19.7 µg/mL)

SMILES: COc1cccnc1Nc1nc(-c2ccccn2)cs1
solubility kinetic [1]: 1.2 µM (≈ 0.341 µg/mL)

SMILES: CC(=O)Nc1cccc(-c2cnc(Nc3ccc(F)cc3)o2)c1
solubility kinetic [1]: 5 µM (≈ 1.56 µg/mL)

SMILES: CN(c1ccc(F)cc1)c1ncc(-c2cccc(C(=O)O)c2)o1
concentration at […] [4]: 788 ng/mL
Kp at 0.5 h [5]: 0.0137
concentration at […] [6]: 16.4 ng/g
concentration at 0.5 h [7]: 529 ng/mL
concentration at 0.5 h [8]: 7.27 ng/g
Kp at […] [9]: 0.0213
solubility kinetic [1]: 277 µM (≈ 86.5 µg/mL)

SMILES: O=C(O)c1cccc(-c2csc(Nc3ccccc3)n2)c1
solubility kinetic [1]: 70.2 µM (≈ 20.8 µg/mL)

SMILES: NCc1cccc(-c2cnc(Nc3ccc(F)cc3)o2)c1
concentration at […] [4]: 32.8 ng/mL
Kp at 0.5 h [5]: 14.3
concentration at […] [6]: 473 ng/g
concentration at 0.5 h [7]: 21 ng/mL
concentration at 0.5 h [8]: 297 ng/g
Kp at […] [9]: 14.5
solubility kinetic [1]: 50.8 µM (≈ 14.4 µg/mL)

SMILES: CNC(=O)c1cccc(-c2cnc(N(C)c3ccc(F)cc3)o2)c1
concentration at […] [4]: 164 ng/mL
Kp at 0.5 h [5]: 1.02
concentration at […] [6]: 200 ng/g
concentration at 0.5 h [7]: 31.1 ng/mL
concentration at 0.5 h [8]: 30.9 ng/g
Kp at […] [9]: 1.21
solubility kinetic [1]: 60.4 µM (≈ 19.7 µg/mL)

SMILES: COc1cccc(-c2csc(Nc3ccccc3F)n2)c1
solubility kinetic [1]: 49.3 µM (≈ 14.8 µg/mL)

SMILES: O=C(O)c1cccc(-c2nc(Nc3ccccc3F)cs2)c1
solubility kinetic [1]: > 100 µM

SMILES: O=C(O)c1ccc(-c2csc(-c3ccccc3F)n2)cc1
solubility kinetic [1]: 38.4 µM (≈ 11.5 µg/mL)
